# In patent US20250271418A1, “ANTICANCER DRUG ASSESSMENT METHODS AND ANTICANCER DRUG ASSESSMENT KITS” (TOPPAN HOLDINGS INC., priority 2022, published 2025):
# Where two headings read alike, the source gives them in different places.
# Columns and labels:
# Test in all cases: cells
# [1] = system: HT29, a human colorectal adenocarcinoma cell line; conditions: HT-29, 72 h, read-out: Cell viability (%)
# [2] = system: HT29, a human colorectal adenocarcinoma cell line; conditions: 72 h, read-out: Cell viability (%)
# [3] = system: HT29, a human colorectal adenocarcinoma cell line; conditions: 72 h, read-out: Cell viability (%); remark: listed apart in the source
smiles,measurement,setting,value
"O=c1[nH]cc(F)c(=O)[nH]1 [5-FU, 5-fluorouracil]",viability at 1 µM,[1],99.3 ± 21%
same,viability at 10 µM,[1],75.3 ± 12.4%
same,viability at 100 µM,[1],54.3 ± 10.2%
same,viability at 1000 µM,[1],40.3 ± 8.34%
same,viability at 1 µM,[2],100 ± 13.2%
same,viability at 1 µM,[3],100 ± 31.2%
